Source: patent US10981900B2, “Spiro compound and use thereof” (MEDSHINE DISCOVERY INC., priority 2017, dated 2021)
Where two headings read alike, the source gives them in different places.

Tests used:
S1P1 receptor = target: T1, S1P1 receptor (Homo sapiens, UniProt P21453); test: S1P1 receptor agonistic activity assay (PathHunter cell strain, chemiluminescent signal detection); assay type: cell-based; conditions: PathHunter cells, agonist mode, 37° C. for 90-180 minutes
T1 construct: expressed in transfected cells
Experimental: 1. A PathHunter cell strain was thawed according to standard procedures;
2. The cell was seeded in 20 μl 384-well microplates and incubated at 37° C. for an appropriate time.
1. For an agonist assay, the cell was incubated with the sample to be tested to initiate a reaction;
2. The stock to be tested is diluted 5 folds to be a buffer solution;
3. The 5-fold diluted solution (5 μL) was added to the cells and incubated at 37° C. for 90-180 minutes. The solvent concentration was 1%.
1. 12.5 μL or 15 μL of PathHunter detection reagent (50 vol. %) was added in one portion and then incubated for 1 hour at room temperature to generate a detection signal;
2. The microplate was read using a PerkinElmer Envision™ instrument for chemiluminescent signal detection.
1. Compound activity analysis was performed using a CBIS Data Analysis Kit;
2. Calculation formula: % activity=100%×(average RLU of sample to be test-average RLU of solvents)/(average maximum control ligand−average RLU of solvents)

[1] = Evaluation of compounds' pharmacokinetics in SD rats in vivo (intravenous injection and oral administration); design: species or system Sprague Dawley rats; conditions: single intravenous injection and oral administration; for AUC: read-out: Concentration integral AUC; for half-life: read-out: Half life T1/2 (converted); for bioavailability: oral, read-out: Bioavailability F
Experimental: Objective: To test the pharmacokinetics of compounds in SD rats in vivo.
Sprague Dawley rats (male, 200-300 g, 7-9 weeks old, Shanghai Slack)
The pharmacokinetics profile of the compound in rodent after intravenous injection and oral administrations was tested using a standard protocol. In the assay, the candidate compound was formulated into a clear solution, and was given to the rats through a single intravenous injection and oral administration. The vehicles for the intravenous injection and oral administration were an aqueous hydroxypropyl β-cyclodextrin solution or dimethyl sulfoxide in aqueous PEG400 solution in a proper proportion. The whole blood samples were collected within 24 hours, centrifuged at 3000 g for 15 minutes, and plasma samples were obtained by separating the supernatant. 4 times volume of acetonitrile solution containing an internal standard was added to precipitate proteins. After centrifugation, the supernatant was collected, to which an equal volume of water was added, and further centrifuged to collect the supernatant. The LC-MS/MS method was used to quantitatively analyze the plasma concentration, and the pharmacokinetics parameters, such as peak concentration, peak time, clearance rate, half-life, area under the curve, and bioavailability were calculated.

[2] = male, Sprague-Dawley, rat, plasma, 3 mg/kg, 3 mpk
[3] = male, Sprague-Dawley, rat, plasma, intravenous, 3 mg/kg, 3 mpk, read-out: Clearance
[4] = male, Sprague-Dawley, rat, plasma, 2 mg/kg, 2 mpk

T1 sequence (P21453 whole entry): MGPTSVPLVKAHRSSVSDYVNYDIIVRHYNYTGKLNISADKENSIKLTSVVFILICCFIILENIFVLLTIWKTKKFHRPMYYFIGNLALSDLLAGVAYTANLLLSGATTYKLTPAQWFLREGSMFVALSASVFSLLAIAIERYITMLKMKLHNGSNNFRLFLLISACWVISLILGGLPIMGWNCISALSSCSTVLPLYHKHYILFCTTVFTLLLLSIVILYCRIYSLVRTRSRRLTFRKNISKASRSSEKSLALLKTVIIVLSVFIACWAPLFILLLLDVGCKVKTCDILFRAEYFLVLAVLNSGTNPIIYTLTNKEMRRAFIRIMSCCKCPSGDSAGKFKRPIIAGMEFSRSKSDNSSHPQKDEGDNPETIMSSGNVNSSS

Compound: CC(C)Oc1ccc(-c2nc(-c3cccc4c3CCC43CC(=O)N(CCO)C3)no2)cc1C#N (single isomer, unassigned) [Example 21 isomer 1]
- EC50 (S1P1 receptor): ≤ 10 nM
- AUC [1, 2]: 12.6 µM·h
- half-life [1, 2]: 3.02 h
- clearance [1, 3]: 8.65 mL/min/kg
- bioavailability [1, 2]: 100%

Compound: CC(C)Oc1ccc(-c2nc(-c3cccc4c3CCC43CC(=O)N(CCO)C3)no2)cc1C#N (single isomer, unassigned) [Example 21 isomer 2]
- Bioavailability F ([1]; 3 mpk, 3 mg/kg): 89.6%
- Concentration integral AUC ([1]; 3 mpk, 3 mg/kg): 8.483 µM·h
- Half life T1/2 ([1]; 3 mpk, 3 mg/kg): 3.22 h
- clearance ([1]; 3 mpk, 3 mg/kg): 11.6 mL/min/kg

Compound: CC(C)Oc1ccc(-c2nc(-c3cccc4c3CCC43CCN(C4CC(C(=O)O)C4)C3)no2)cc1C#N (single isomer, unassigned) [Example 47 Isomer 3]
- Bioavailability F ([1]; 3 mpk, 3 mg/kg): 48.7%
- AUC [1, 2]: 5.66 µM·h
- half-life [1, 2]: 3.98 h
- clearance [1, 3]: 8.81 mL/min/kg

Compound: CC(C)Oc1ccc(-c2nc(-c3cccc4c3CCC43CCN(C4CC(C(=O)O)C4)C3)no2)cc1C#N (single isomer, unassigned) [Example 47 Isomer 4]
- Bioavailability F ([1]; 3 mpk, 3 mg/kg): 89.6%
- Concentration integral AUC ([1]; 3 mpk, 3 mg/kg): 8.483 µM·h
- Half life T1/2 ([1]; 3 mpk, 3 mg/kg): 3.22 h
- clearance ([1]; 3 mpk, 3 mg/kg): 11.6 mL/min/kg

Compound: O=C1CC2(CCc3c(-c4noc(-c5ccc(Cl)cc5)n4)cccc32)CN1CCO (stereo not drawn) [Example 1]
- EC50 (S1P1 receptor): > 100 nM

Compound: O=C1CC2(CCc3c(-c4noc(-c5cccc(Cl)c5)n4)cccc32)CN1CCO (stereo not drawn) [Example 2]
- EC50 (S1P1 receptor): > 100 nM

Compound: O=C1CC2(CCc3c(-c4noc(-c5ccccc5Cl)n4)cccc32)CN1CCO (stereo not drawn) [Example 3]
- EC50 (S1P1 receptor): > 100 nM

Compound: COc1ccc(-c2nc(-c3cccc4c3CCC43CC(=O)N(CCO)C3)no2)cc1 (stereo not drawn) [Example 4]
- EC50 (S1P1 receptor): > 100 nM

Compound: COc1cccc(-c2nc(-c3cccc4c3CCC43CC(=O)N(CCO)C3)no2)c1 (stereo not drawn) [Example 5]
- EC50 (S1P1 receptor): > 100 nM

Compound: COc1ccccc1-c1nc(-c2cccc3c2CCC32CC(=O)N(CCO)C2)no1 (stereo not drawn) [Example 6]
- EC50 (S1P1 receptor): > 100 nM

Compound: N#Cc1ccc(-c2nc(-c3cccc4c3CCC43CC(=O)N(CCO)C3)no2)cc1 (stereo not drawn) [Example 7]
- EC50 (S1P1 receptor): > 100 nM

Compound: N#Cc1cccc(-c2nc(-c3cccc4c3CCC43CC(=O)N(CCO)C3)no2)c1 (stereo not drawn) [Example 8]
- EC50 (S1P1 receptor): > 100 nM

Compound: CC(C)Oc1ccc(-c2nc(-c3cccc4c3CCC43CC(=O)N(CCO)C3)no2)cc1C(F)F (stereo not drawn) [Example 9]
- EC50 (S1P1 receptor): ≤ 10 nM
- AUC [1, 4]: 4.35 µM·h
- half-life [1, 4]: 99.3 h
- clearance ([1]; male, Sprague-Dawley, rat, plasma, intravenous, 2 mg/kg, 2 mpk, read-out: Clearance): 2.52 mL/min/kg
- bioavailability [1, 4]: 89.4%

Compound: CC(C)Oc1ccc(-c2nc(-c3cccc4c3CCC43CC(=O)N(CCO)C3)no2)cc1OC(F)F (stereo not drawn) [Example 10]
- EC50 (S1P1 receptor): ≤ 10 nM

Compound: CC(C)Oc1ccc(-c2nc(-c3cccc4c3CCC43CC(=O)N(CCO)C3)no2)cc1Cl (stereo not drawn) [Example 11]
- EC50 (S1P1 receptor): ≤ 10 nM

Compound: CC(C)Oc1ccc(-c2nc(-c3cccc4c3CCC43CC(=O)N(CCO)C3)no2)c(C#N)c1 (stereo not drawn) [Example 12]
- EC50 (S1P1 receptor): > 100 nM

Compound: CC(C)Oc1ccc(-c2nc(-c3cccc4c3CCC43CC(=O)N(CCO)C3)no2)cc1 (stereo not drawn) [Example 13]
- EC50 (S1P1 receptor): > 100 nM

Compound: O=C1CC2(CCc3c(-c4noc(-c5ccc(OC(F)(F)F)cc5)n4)cccc32)CN1CCO (stereo not drawn) [Example 14]
- EC50 (S1P1 receptor): > 100 nM

Compound: O=C1CC2(CCc3c(-c4noc(-c5ccc(OC(F)F)cc5)n4)cccc32)CN1CCO (stereo not drawn) [Example 15]
- EC50 (S1P1 receptor): > 100 nM

Compound: Cc1ccc(-c2nc(-c3cccc4c3CCC43CC(=O)N(CCO)C3)no2)cc1 (stereo not drawn) [Example 16]
- EC50 (S1P1 receptor): > 100 nM

Compound: CC(C)c1ccc(-c2nc(-c3cccc4c3CCC43CC(=O)N(CCO)C3)no2)cc1 (stereo not drawn) [Example 17]
- EC50 (S1P1 receptor): > 100 nM

Compound: N#Cc1ccccc1-c1nc(-c2cccc3c2CCC32CC(=O)N(CCO)C2)no1 (stereo not drawn) [Example 18]
- EC50 (S1P1 receptor): > 100 nM

Compound: O=C1CC2(CCc3c(-c4noc(-c5ccc(OCC6CC6)cc5)n4)cccc32)CN1CCO (stereo not drawn) [Example 19]
- EC50 (S1P1 receptor): > 100 nM

Compound: CC(C)Nc1ncc(-c2nc(-c3cccc4c3CCC43CC(=O)N(CCO)C3)no2)cc1Br (stereo not drawn) [Example 20]
- EC50 (S1P1 receptor): 10 to 100 nM

Compound: CC(C)Oc1ccc(-c2nc(-c3cccc4c3CCC43CC(=O)N(CCO)C3)no2)cc1C#N (stereo not drawn) [Example 21 mixture]
- EC50 (S1P1 receptor): ≤ 10 nM

Compound: CC(C)Oc1ccc(-c2nc(-c3cccc4c3CCC43CC(=O)N(CCO)C3)no2)cc1Br (stereo not drawn) [Example 22]
- EC50 (S1P1 receptor): ≤ 10 nM

Compound: CC(C)Oc1ccc(-c2nc(-c3cccc4c3CCC43CC(=O)N(CCO)C3)no2)cc1S(C)(=O)=O (stereo not drawn) [Example 23]
- EC50 (S1P1 receptor): 10 to 100 nM

Compound: COCCN1CC2(CCc3c(-c4noc(-c5ccc(OC(C)C)c(C#N)c5)n4)cccc32)CC1=O (stereo not drawn) [Example 24]
- EC50 (S1P1 receptor): ≤ 10 nM

Compound: CC(C)Oc1ccc(-c2nc(-c3cccc4c3CCC43CC(=O)N(CCS(C)(=O)=O)C3)no2)cc1C#N (stereo not drawn) [Example 25]
- EC50 (S1P1 receptor): ≤ 10 nM

Compound: CC(C)Oc1ccc(-c2nc(-c3cccc4c3CCC43CC(=O)N(CC(=O)N(C)C)C3)no2)cc1C#N (stereo not drawn) [Example 26]
- EC50 (S1P1 receptor): ≤ 10 nM

Compound: CC(C)Oc1ccc(-c2nc(-c3cccc4c3CCC43CC(=O)N(CCN(C)C)C3)no2)cc1C#N (stereo not drawn) [Example 27]
- EC50 (S1P1 receptor): 10 to 100 nM

Compound: CC(C)Oc1ccc(-c2nc(-c3cccc4c3CCC43CC(=O)N(CC(=O)O)C3)no2)cc1C#N (stereo not drawn) [Example 28]
- EC50 (S1P1 receptor): ≤ 10 nM

Compound: CC(C)Oc1ccc(-c2nc(-c3cccc4c3CCC43CC(=O)N(CCCCC(=O)O)C3)no2)cc1C#N (stereo not drawn) [Example 29]
- EC50 (S1P1 receptor): ≤ 10 nM

Compound: CC(C)Oc1ccc(-c2nc(-c3cccc4c3CCC43CCN(CCO)C3=O)no2)cc1C#N (stereo not drawn) [Example 30]
- EC50 (S1P1 receptor): 10 to 100 nM

Compound: CC(C)Oc1ccc(-c2nc(-c3cccc4c3CCC43CCC(=O)N3CCO)no2)cc1C#N (stereo not drawn) [Example 31]
- EC50 (S1P1 receptor): 10 to 100 nM

Compound: CC(C)Oc1ccc(-c2nc(-c3cccc4c3CCC43CCC(CO)N3)no2)cc1C#N (stereo not drawn) [Example 32]
- EC50 (S1P1 receptor): 10 to 100 nM

Compound: CC(C)Oc1ccc(-c2nc(-c3cccc4c3CCCC43CC(=O)N(CCO)C3)no2)cc1C#N (stereo not drawn) [Example 33]
- EC50 (S1P1 receptor): ≤ 10 nM

Compound: CC(C)Oc1ccc(-c2nc(-c3cccc4c3CCC43CCC(=O)N(CCO)C3)no2)cc1C#N (stereo not drawn) [Example 34]
- EC50 (S1P1 receptor): ≤ 10 nM

Compound: CC(C)Oc1ccc(-c2nc(-c3cccc4c3CCC43CCN(CCO)C3)no2)cc1C#N (stereo not drawn) [Example 35]
- EC50 (S1P1 receptor): ≤ 10 nM

Compound: CC(C)Oc1ccc(-c2nc(-c3cccc4c3CCC43CC(=O)N(CCO)C3=O)no2)cc1C#N (stereo not drawn) [Example 36]
- EC50 (S1P1 receptor): ≤ 10 nM

Compound: CC(C)Oc1ccc(-c2nc(-c3cccc4c3CCC43COC(=O)N3CCO)no2)cc1C#N (stereo not drawn) [Example 37]
- EC50 (S1P1 receptor): 10 to 100 nM

Compound: CC(C)Oc1ccc(-c2nnc(-c3cccc4c3CCC43CC(=O)N(CCO)C3)s2)cc1C#N (stereo not drawn) [Example 38]
- EC50 (S1P1 receptor): ≤ 10 nM

Compound: CC(C)Oc1ccc(-c2nsc(-c3cccc4c3CCC43CC(=O)N(CCO)C3)n2)cc1C#N (stereo not drawn) [Example 39]
- EC50 (S1P1 receptor): 10 to 100 nM

Compound: CC(C)Oc1ccc(-c2nc(-c3cccc4c3CCC43CC(=O)N(CCO)C3)ns2)cc1C#N (stereo not drawn) [Example 40]
- EC50 (S1P1 receptor): ≤ 10 nM

Compound: CC(C)Oc1ccc(-c2ncc(-c3cccc4c3CCC43CC(=O)N(CCO)C3)s2)cc1C#N (stereo not drawn) [Example 41]
- EC50 (S1P1 receptor): ≤ 10 nM

Compound: CC(C)Oc1ccc(-c2ncc(-c3cccc4c3CCC43CC(=O)N(CCO)C3)o2)cc1C#N (stereo not drawn) [Example 42]
- EC50 (S1P1 receptor): 10 to 100 nM

Compound: CC(C)Oc1ccc(-c2ccc(-c3cccc4c3CCC43CC(=O)N(CCO)C3)s2)cc1C#N (stereo not drawn) [Example 43]
- EC50 (S1P1 receptor): 10 to 100 nM

Compound: CC(C)Oc1ccc(-c2ncc(-c3cccc4c3CCC43CC(=O)N(CCO)C3)cn2)cc1C#N (stereo not drawn) [Example 44]
- EC50 (S1P1 receptor): ≤ 10 nM

Compound: CC(C)Oc1ccc(-c2cnc(-c3cccc4c3CCC43CC(=O)N(CCO)C3)cn2)cc1C#N (stereo not drawn) [Example 45]
- EC50 (S1P1 receptor): ≤ 10 nM

Compound: CC(C)Oc1ccc(-c2nc(-c3cccc4c3CCC43CCN(C4CC(C(=O)O)C4)C3)no2)cc1C#N (stereo not drawn) [Example 47]
- EC50 (S1P1 receptor): ≤ 10 nM

Compound: CC(C)Oc1ccc(-c2nc(-c3cccc4c3CCC43CCN(CC(=O)O)C3)no2)cc1C#N (stereo not drawn) [Example 48]
- EC50 (S1P1 receptor): ≤ 10 nM

Compound: CC(C)Oc1ccc(-c2nc(-c3cccc4c3CC[C@@H]4NCCO)no2)cc1C#N [Ozanimod, reference compound]
- AUC [1, 2]: 1.12 µM·h
- half-life [1, 2]: 5.24 h
- clearance [1, 3]: 46.3 mL/min/kg
- bioavailability [1, 2]: 41.6%
